In series [1] the test system is subarachnoid bleeding model animal. Particulars: subarachnoid bleeding model animal injected with one's own blood; Non-patent Reference 6; cited from earlier work.
For series [2] the following is noted: disclosed in Patent Reference 1 (WO 96/10023); cited from earlier work.
The test system of series [3] is cerebral hemorrhage model. Description: Neurological symptom score in collagenase-induced rat cerebral hemorrhage model. The format is in vivo. The conditions noted are these: 10 or 20 mg/kg/h; for neurological symptom score on the 2nd day after collagenase injection, versus physiological saline administration group / neurological symptom score on the 14th day after collagenase injection, versus physiological saline administration group: 24 h intravenous continuous injection started 30 min after collagenase, Steel test. As to the method:
A cerebral hemorrhage model was prepared by the following procedure by adding a partial modification to the method of Rosenberg et al. (Stroke, 21, 801-807, 1990). Each of male Sprague-Dawley rats (240 to 330 g in body weight, Charles River Japan) was subjected to continuous anesthesia with 1% halothane under spontaneous respiration and fixed on a stereotaxic instrument. The skull was exposed by carrying out median skin incision of the head of the animal, and a small bone window was opened on the skull using a dental drill (C730, MINIMO) at a position of 0.2 mm in the front side (A: +0.2 mm) and 3.0 mm in the left side (L: +3.0 mm) based on dBregma in accordance with the Paxinos's brain pictorial book (Paxinos G and Watson C, The rat brain in the stereotaxic coordinates (1986) Academic Press, New Yolk). An administration needle of 30G was inserted to a depth of 6.0 mm (H: −6.0 mm) from the skull and then pulled out 0.3 mm to ensure an administration space (central part of the striatum). A solution of collagenase (10 units/ml, type IV, Lot 99H8641, Sigma) was injected at a flow rate of 0.2 μl/min for 7 minutes (1.4 μl) using a micro-syringe pump (Neuroscience Syringe Pump 100, Muromachi). The administration needle was slowly pulled out after completion of the injection, scalp suture was carried out, and then the animal was revived by warming up under an incandescent lamp. It has been reported that a cerebral hemorrhage locally limited to the striatum is generated 0.5 to 4 hours after injection of collagenase in this rat cerebral hemorrhage model (Stroke, 27, 2312-2320, 1996).
As the administration of medicament, zonampanel monohydrate (hereinafter, compound a) was used. After 30 minutes of the collagenase injection, intravenous injection of zonampanel was started via a canula indwelled in the common jugular vein. The compound a was dissolved in physiological saline at a concentration of 10 mg/5 ml or 20 mg/5 ml and then subjected to 24 hours of intravenous continuous injection under shading at a dose of 10 mg/5 ml/kg/h (compound a (10 mg/kg) administration group) or 20 mg/5 ml/kg/h (compound a (20 mg/kg) administration group). In the control group, physiological saline was subjected to 24 hours of intravenous continuous injection at a dose of 5 ml/kg/h (physiological saline administration group). The number of animals in respective groups was 6 animals in the compound a (10 mg/kg) administration group, 9 animals in the compound a (20 mg/kg) administration group, and 9 animals in the physiological saline administration group.
Staring after 30 minutes of the injection of collagenase into the striatum, the compound a was subjected to 24 hours of intravenous continuous injection at a dose of 10 mg/kg/h (compound a (10 mg/kg) administration group, 6 cases) or 20 mg/kg/h (compound a (20 mg/kg) administration group, 9 cases), and a neurological symptom of each animal was observed before the injection of collagenase and on the 2nd and 14th days after the collagenase injection. Physiological saline was administered to the control group (physiological saline administration group, 9 cases).
Scoring criteria of the neurological symptom are as follows. This was scored by 5 steps (O to 4) based on the behavior of each animal when the waist part of the animal was pushed toward the front side.
Score 1: Turning right is predominant but sometimes turns left.
Score 0: Normal, no left-right turning inclination. […]

Series [4] deals with cerebral infarction models. The conditions noted are these: various cerebral infarction models; reported; cited from earlier work.
Series [5] deals with ischemic reperfusion model. The conditions noted are these: Non-patent Reference 5; cited from earlier work.
Series [6] has as its system AMPA receptor. Particulars: disclosed in Patent Reference 1 (WO 96/10023); cited from earlier work.

Turning to `CC1=NN=C(c2ccc(N)cc2)c2cc3c(cc2C1)OCO3` [GYK152466], in series [1], the “effect on vascular permeability acceleration” value is given as “inhibits vascular permeability acceleration”.
As for `O.O=C(O)Cn1c(=O)c(=O)[nH]c2cc([N+](=O)[O-])c(-n3ccnc3)cc21` [compound a, [7-(1H-imidazol-1-yl)-6-nitro-2,3-dioxo-3,4-dihydroquinoxalin-1(2H)-yl]acetic acid monohydrate], the water-solubility entry in series [2] is on record as “high”. Besides, the “neurological symptom score on the 2nd day after collagenase injection, versus physiological saline administration group” value in series [3] (listed as zonampanel, monohydrate) is given as “does not show significant effect”; in series [3] (monohydrate) it was “almost the same”. Moreover, the “neurological symptom score on the 14th day after collagenase injection, versus physiological saline administration group” value is listed as “significant improving effect” in series [3] (p<0.05, listed as zonampanel, monohydrate) and “significantly light” in series [3] (p<0.05, monohydrate). The “change of neurological symptom score as the days elapsed, in comparison with the control” value in series [3] (24 h intravenous continuous injection, days 0 to 14 (FIG. 1)) is “improving tendency”. The “effect on progress of infarction foci” value in series [4] is reported as “inhibit progress of infarction foci”. Besides, the “time after drug administration from which the neurological symptoms improving action is observed” value in series [5] is at least 24 hours. For the same molecule, the “AMPA receptor binding activity” value in series [6] is “potent and selective”.

The record behind these values is patent US20050234063A1, “Therapeutic agent for brain hemorrhage” (priority 2002, published 2005).
